Assay in all cases: inhibition of tumour cell growth, NCI panel, 48 h
In assay [1] the test system is COLO 205 colon.
Assay [2] has as its system EKVX NSCLC.
Assay [3] concerns HCC-2998 colon.
Assay [4] concerns HCT-15 colon.
In assay [5] the test system is MALME-3M melanoma.
For assay [6], the system named is NCI-H460 lung.
The test system of assay [7] is OVCAR-3 ovarian.
The subject of assay [8] is RXF 393 renal.
The subject of assay [9] is SK-OV-3 ovarian.
The subject of assay [10] is SR leukemia.

SMILES strings stand for the structures.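 The compound was tested at five concentrations on cells cultured in 96-well plates, with a 48-hour exposure period. At the GI50, growth is halved. TGI marks complete inhibition of growth.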

On to `C[C@]12CCC(=O)C(O)=C1CC[C@@H]1[C@@H]2CC[C@]2(C)C(=O)CC[C@@H]12`, for which the TGI in [1], in assay [2], in assay [3], in assay [4], in assay [5] and in assay [6] was over 100 µM throughout. Besides, the TGI in [7], in assay [8], in [9] and in assay [10] was over 100 µM throughout.
For the molecule `Cc1ccc2c(N)c(C(=O)N[C@H]3CCc4cc(N5CC6CCC(C5)N6)ccc4C3)sc2n1`, the GI50 in assay [1] is 0.383 µM; in [2], 0.572 µM; in [3], 0.342 µM; in assay [4], 0.34 µM; in assay [5], 0.441 µM; in assay [6], 0.152 µM. Further, the GI50 in assay [7] was 0.547 µM; in assay [8], 0.217 µM; in assay [9], 0.422 µM; in assay [10], 0.202 µM. Moreover, the TGI in [1] was determined as 1.49 µM; in assay [2] it was 2.34 µM; in assay [3], 2.08 µM; in assay [4], 2.36 µM; in assay [5], 2.04 µM; in assay [6] it was 1.43 µM. The TGI in assay [7] came to 2.63 µM; in assay [8], 0.686 µM; in assay [9] it was 2.99 µM; in [10], 4.36 µM.
As to `C=C1CC[C@@H]2C(C)(C)CCC[C@@]2(C)[C@@H]1Cc1cc(O)ccc1O`, the TGI in assay [1] worked out at 31.4 µM; in assay [2], 29 µM; in assay [3], 28 µM; in assay [4], 12.3 µM; in assay [5], 17.4 µM; in assay [6] it was 33.4 µM. The TGI turned out to be 18.5 µM in [7], 5.18 µM in assay [8], 6.04 µM in [9] and 12.1 µM in assay [10].
Turning to `Cc1ccc2c(=O)c3cccc(CC(=O)O)c3oc2c1C`, the GI50 in [1], in [2], in [3], in assay [4], in assay [5] and in assay [6] was over 100 µM throughout. For the same molecule, the GI50 in [7], in assay [8], in assay [9] and in assay [10] was over 100 µM each time. The TGI in [1], in assay [2], in [3], in [4], in [5] and in [6] was over 100 µM throughout. Also, the TGI in [7], in assay [8], in assay [9] and in [10] was over 100 µM throughout.
Consider `CCOC(=O)Oc1c(OC)cc(C(=O)O[C@@H]2C[C@@H]3CN4CCc5c([nH]c6cc(OC)ccc56)[C@H]4C[C@@H]3[C@H](C(=O)OC)[C@H]2OC)cc1OC`, for which the GI50 in assay [1] is 10.3 µM; in assay [2], 5.78 µM; in assay [3] it was 5.06 µM; in [4] it was 2.86 µM; in [5] it was 6.74 µM; in assay [6] it was 3.8 µM. For the same molecule, the GI50 in assay [7] is 4.62 µM; in assay [8], 5.03 µM; in assay [9] it was 14.3 µM; in assay [10], 3.61 µM. Moreover, the TGI in assay [1] was found to be 24.1 µM; in assay [2], 35.9 µM; in assay [3], 20 µM; in assay [4] it was 13.2 µM; in [5] it was 27.1 µM; in [6], 16.6 µM. Besides, the TGI in assay [7] was 16.1 µM; in assay [8], 19.1 µM; in assay [9], 27.4 µM; in assay [10], over 100 µM.
Regarding `Cc1nc2cccc(NCc3ccc(C(=O)NO)cc3)c2c(=O)n1-c1ccccc1`, the GI50 in assay [1] is 1.87 µM; in assay [2] it was 2.08 µM; in assay [3], 1.81 µM; in [4], 1.68 µM; in assay [5], 1.48 µM; in assay [6], 2.21 µM. In addition, the GI50 in assay [7] was 2.16 µM; in assay [8] it was 1.41 µM; in [9], 2.71 µM; in [10] it was 1.43 µM. Besides, the TGI was found to be 3.97 µM in assay [1]; 4.9 µM in assay [2]; 3.27 µM in assay [3]; 3.41 µM in assay [4]; 3.26 µM in [5]; 10.5 µM in assay [6]. For the same molecule, the TGI in [7] was 4.9 µM; in [8], 2.79 µM; in assay [9], 8.28 µM; in assay [10], over 100 µM.
In the case of `C=C1C(=O)O[C@H]2[C@H]1CC/C(Cn1cc(-c3ccccc3)nn1)=C\CC[C@@]1(C)O[C@@H]21`, the GI50 in assay [1] was 1.08 µM; in assay [2], 6.87 µM; in [3] it was 6.16 µM; in [4], 0.769 µM; in assay [5] it was 1.17 µM; in assay [6] it was 7.74 µM. Moreover, the GI50 in [7] is 1.4 µM; in [8], 1.55 µM; in [9] it was 9.95 µM; in [10], 1.06 µM. Further, the TGI in assay [1] was found to be 2.36 µM; in [2] it was 13.3 µM; in assay [3], 13 µM; in [4], 1.68 µM; in assay [5], 2.84 µM; in [6] it was 23.3 µM. Further, the TGI in assay [7] was 4.38 µM; in assay [8], 4.22 µM; in [9] it was 17.9 µM; in [10], 6.44 µM.
For the molecule `O=[N+]([O-])C1C2C=CC(C2)[C@H]1c1ccccc1Cl` (stereo not given in full), the TGI in assay [1], in assay [2], in [3], in [4], in assay [5] and in assay [6] was over 100 µM in each case. The TGI in assay [7] is over 31.6 µM; in assay [8], over 100 µM; in assay [9], over 31.6 µM; in assay [10], over 100 µM.
